Measurements published in patent US20070203206A1, “2-Pyrrolidone Derivatives And Use Thereof As Factor Xa Inhibitors” (priority 2003, published 2007).
Structures can show the parent of a compound that is named as a salt.

molecular target: T1, human Factor Xa (Homo sapiens, UniProt P00742); test: In vitro fluorogenic assay for inhibition of Factor Xa; assay type: biochemical; conditions: Ki value
T1 construct: containing human Factor Xa (final conc. Of 0.0003 U·ml-1)
Description: In Vitro Assay for Inhibition of Factor Xa
Compounds of the present invention were tested for their Factor Xa inhibitory activity as determined in vitro by their ability to inhibit human Factor Xa in a fluorogenic assay, using Rhodamine 110, bis-CBZ-glycylglycyl-L-arginine amide as the fluorogenic substrate. Compounds were diluted from a 10 mM stock solution in dimethylsulfoxide at appropriate concentrations. Assay was performed at room temperature using buffer consisting of: 50 mM Tris-HCl, 150 mM NaCl, 5 mM CaCl2, pH 7.4. containing human Factor Xa (final conc. Of 0.0003 U·ml-1). Compound and enzyme were preincubated for 15 min prior to addition of the substrate (final conc. of 10 μM). The reaction was stopped after 3 hrs with the addition of H-D-Phe-Pro-Arg-Chloromethylketone. […] To obtain IC50 values the data were analysed using ActivityBase® and XLfit®.
Calculation of Ki values: Ki=IC50/(1+[Substrate]/Km)
The Ki value for the above assay can be obtained by dividing the IC50 value by 1.6.

T1 sequence (P00742 235-488 limits assumed): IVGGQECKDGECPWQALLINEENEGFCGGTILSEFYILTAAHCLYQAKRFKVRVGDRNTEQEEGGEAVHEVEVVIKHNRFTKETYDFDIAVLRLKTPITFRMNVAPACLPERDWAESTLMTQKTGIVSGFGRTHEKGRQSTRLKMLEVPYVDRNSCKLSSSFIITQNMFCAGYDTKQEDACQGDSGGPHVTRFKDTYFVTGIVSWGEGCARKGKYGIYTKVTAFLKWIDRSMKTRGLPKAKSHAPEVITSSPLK
T1 sequence (P00742 41-179 partner limits assumed): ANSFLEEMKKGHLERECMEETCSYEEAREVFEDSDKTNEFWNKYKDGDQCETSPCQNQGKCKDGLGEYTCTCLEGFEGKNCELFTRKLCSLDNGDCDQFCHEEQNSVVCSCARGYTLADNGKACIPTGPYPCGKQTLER

| SMILES | Ki [µM] |
| --- | --- |
| CNCCN(C)C(=O)c1ccc(N2CCC(NS(=O)(=O)/C=C(\C)c3ccc(Cl)s3)C2=O)c(F)c1 (centres unmarked) [Example 1, 4-[3-({[(1E)-2-(5-Chloro-2-thienyl)-1-propen-1-yl]sulfonyl}amino)-2-oxo-1-pyrrolidinyl]-3-fluoro-N-methyl-N-[2-(methylamino)ethyl]benzamide] | < 0.1 |
| C/C(=C\S(=O)(=O)NC1CCN(c2ccc(C(=O)N(C)Cc3ccccn3)cc2F)C1=O)c1ccc(Cl)s1 (centres unmarked) [Example 3, 4-[3-({[(1E)-2-(5-Chloro-2-thienyl)-1-propen-1-yl]sulfonyl}amino)-2-oxo-1-pyrrolidinyl]-3-fluoro-N-methyl-N-(2-pyridinylmethyl)benzamide] | < 0.1 |
| COCCN(C)C(=O)c1ccc(N2CCC(NS(=O)(=O)/C=C(\C)c3ccc(Cl)s3)C2=O)c(F)c1 (centres unmarked) [Example 5, 4-[3-({[(1E)-2-(5-Chloro-2-thienyl)-1-propen-1-yl]sulfonyl}amino)-2-oxo-1-pyrrolidinyl]-3-fluoro-N-methyl-N-[2-(methyloxy)ethyl]benzamide] | < 1 |
| C/C(=C\S(=O)(=O)NC1CCN(c2ccc(C(=O)N(C)CCc3cccnc3)cc2F)C1=O)c1ccc(Cl)s1 (centres unmarked) [Example 30, 4-[3-({[(1E)-2-(5-Chloro-2-thienyl)-1-propen-1-yl]sulfonyl}amino)-2-oxo-1-pyrrolidinyl]-3-fluoro-N-methyl-N-[2-(3-pyridinyl)ethyl]benzamide] | < 0.1 |
| C/C(=C\S(=O)(=O)NC1CCN(c2ccc(C(=O)N(C)CCc3c[nH]cn3)cc2F)C1=O)c1ccc(Cl)s1 (centres unmarked) [Example 31, 4-[3-({[(1E)-2-(5-Chloro-2-thienyl)-1-propen-1-yl]sulfonyl}amino)-2-oxo-1-pyrrolidinyl]-3-fluoro-N-[2-(1H-imidazol-4-yl)ethyl]-N-methylbenzamide] | < 0.1 |

same assay, conditions: human Factor Xa, Rhodamine 110 bis-CBZ-glycylglycyl-L-arginine amide substrate 10 μM, 15 min preincubation, room temperature, pH 7.4; Ki = IC50/1.6; read-out: Ki value

| SMILES | Ki [µM] |
| --- | --- |
| C/C(=C\S(=O)(=O)NC1CCN(c2ccc(C(=O)N(C)CCO)cc2F)C1=O)c1ccc(Cl)s1 (centres unmarked) [Example 2, 4-[3-({[(1E)-2-(5-Chloro-2-thienyl)-1-propen-1-yl]sulfonyl}amino)-2-oxo-1-pyrrolidinyl]-3-fluoro-N-(2-hydroxyethyl)-N-methylbenzamide] | < 1 |
| C/C(=C\S(=O)(=O)NC1CCN(c2ccc(C(=O)N(C)CCS(C)(=O)=O)cc2F)C1=O)c1ccc(Cl)s1 (centres unmarked) [Example 4, 4-[3-({[(1E)-2-(5-Chloro-2-thienyl)-1-propen-1-yl]sulfonyl}amino)-2-oxo-1-pyrrolidinyl]-3-fluoro-N-methyl-N-[2-(methylsulfonyl)ethyl]benzamide] | < 0.1 |
| O=C(NCc1ccncc1)c1ccc(N2CCC(NS(=O)(=O)/C=C/c3ccc(Cl)s3)C2=O)c(F)c1 (centres unmarked) [Example 8, 4-[3-({[(E)-2-(5-Chloro-2-thienyl)ethenyl]sulfonyl}amino)-2-oxo-1-pyrrolidinyl]-3-fluoro-N-(4-pyridinylmethyl)benzamide] | < 1 |
| O=C(NCc1cccnc1)c1ccc(N2CCC(NS(=O)(=O)/C=C/c3ccc(Cl)s3)C2=O)c(F)c1 (centres unmarked) [Example 9, 4-[3-({[(E)-2-(5-Chloro-2-thienyl)ethenyl]sulfonyl}amino)-2-oxo-1-pyrrolidinyl]-3-fluoro-N-(3-pyridinylmethyl)benzamide] | < 1 |
| CN(C)CCN(C)C(=O)c1ccc(N2CCC(NS(=O)(=O)c3cc4ccc(Cl)cc4s3)C2=O)c(F)c1 (centres unmarked) [Example 25, 4-(3-{[(6-Chloro-1-benzothien-2-yl)sulfonyl]amino}-2-oxo-1-pyrrolidinyl)-N-[2-(dimethylamino)ethyl]-3-fluoro-N-methylbenzamide formate] | < 1 |
| CNCCN(C)C(=O)c1ccc(N2CCC(NS(=O)(=O)c3cc4ccc(Cl)cc4s3)C2=O)c(F)c1 (centres unmarked) [Example 26, 4-(3-{[(6-Chloro-1-benzothien-2-yl)sulfonyl]amino}-2-oxo-1-pyrrolidinyl)-3-fluoro-N-methyl-N-[2-(methylamino)ethyl]benzamide formate] | < 0.1 |
| CN(CCc1cccnc1)C(=O)c1ccc(N2CCC(NS(=O)(=O)c3cc4ccc(Cl)cc4s3)C2=O)c(F)c1 (centres unmarked) [Example 27, 4-(3-{[(6-Chloro-1-benzothien-2-yl)sulfonyl]amino}-2-oxo-1-pyrrolidinyl)-3-fluoro-N-methyl-N-[2-(3-pyridinyl)ethyl]benzamide] | < 0.1 |
| CN(CCN)C(=O)c1ccc(N2CCC(NS(=O)(=O)c3cc4ccc(Cl)cc4s3)C2=O)c(F)c1 (centres unmarked) [Example 28] | < 1 |
| C/C(=C\S(=O)(=O)NC1CCN(c2ccc(C(=O)N(C)CCN(C)C)cc2F)C1=O)c1ccc(Cl)s1 (centres unmarked) [Example 29, 4-[3-({[(1E)-2-(5-chloro-2-thienyl)-1-propen-1-yl]sulfonyl}amino)-2-oxo-1-pyrrolidinyl]-N-[2-(dimethylamino)ethyl]-3-fluoro-N-methylbenzamide formate] | < 0.1 |
